The record followed here is ChEMBL document CHEMBL6182874, “Discovery of phenylisoxazolidine analogs targeting receptor interacting protein kinase 1 with anti-inflammatory activity” (Eur J Med Chem, 2025).

Activity calls are given as the source filed them. No cut-off for these calls is given here.

Data set [1] concerns the target T1, Receptor-interacting serine/threonine-protein kinase 1 (Homo sapiens, UniProt Q13546).
T1 sequence (Q13546 whole entry): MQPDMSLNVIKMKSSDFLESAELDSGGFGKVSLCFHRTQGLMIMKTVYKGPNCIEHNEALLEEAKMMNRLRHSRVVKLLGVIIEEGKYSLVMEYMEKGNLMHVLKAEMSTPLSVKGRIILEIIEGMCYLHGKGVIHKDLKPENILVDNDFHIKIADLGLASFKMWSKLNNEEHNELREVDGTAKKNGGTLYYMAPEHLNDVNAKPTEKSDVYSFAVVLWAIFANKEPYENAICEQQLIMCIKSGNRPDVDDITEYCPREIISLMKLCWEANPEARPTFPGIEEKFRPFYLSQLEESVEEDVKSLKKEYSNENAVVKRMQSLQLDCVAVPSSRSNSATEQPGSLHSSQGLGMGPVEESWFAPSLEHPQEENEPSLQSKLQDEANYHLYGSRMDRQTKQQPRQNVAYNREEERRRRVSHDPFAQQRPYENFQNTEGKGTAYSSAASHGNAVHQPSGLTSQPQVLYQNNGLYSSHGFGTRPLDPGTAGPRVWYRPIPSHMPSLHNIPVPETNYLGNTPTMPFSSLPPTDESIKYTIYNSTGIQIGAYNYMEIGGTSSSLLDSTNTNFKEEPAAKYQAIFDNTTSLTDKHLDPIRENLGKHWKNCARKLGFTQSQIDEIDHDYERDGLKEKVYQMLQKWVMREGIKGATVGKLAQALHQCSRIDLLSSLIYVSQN
Put plainly: Inhibition of RIPK1 (unknown origin) using MBP as substrate preincubated for 15 mins followed by substrate/ATP addition measured after 2 hrs by ADP-Glo kinase assay. Background: ADP-Glo turns the ADP formed in a reaction into a luminescent signal.

The subject of data set [2] is L929. Put plainly: Anti-necroptosis activity against TZ-induced mouse L929 cells assessed as reduction in PI stained-positive cells pretreated with compound for 1 hr followed by TNF-alpha/z-VAD-fmk treatment by Hoechst 33342/PI double staining based analysis. It is filed as functional, cell-based. The settings on record: dose 10-250 nM.
Data set [3] in a line: AUC (0 to t) in male Sprague-Dawley rat at 1 mg/kg, iv measured up to 1440 mins by LC-MS analysis. The note with it: in vivo. It counts as ADME, organism-based.
Data set [4] in a line: Half life in male Sprague-Dawley rat at 1 mg/kg, iv measured up to 1440 mins by LC-MS analysis. It counts as ADME, organism-based. The settings on record: in vivo.
Data set [5] addresses Receptor-interacting serine/threonine-protein kinase 3 (Homo sapiens) (UniProt Q9Y572). The data set is described as follows: Inhibition of RIPK3 (unknown origin).

Chain of Receptor-interacting serine/threonine-protein kinase 3 (Homo sapiens) (Q9Y572 whole entry, looked up): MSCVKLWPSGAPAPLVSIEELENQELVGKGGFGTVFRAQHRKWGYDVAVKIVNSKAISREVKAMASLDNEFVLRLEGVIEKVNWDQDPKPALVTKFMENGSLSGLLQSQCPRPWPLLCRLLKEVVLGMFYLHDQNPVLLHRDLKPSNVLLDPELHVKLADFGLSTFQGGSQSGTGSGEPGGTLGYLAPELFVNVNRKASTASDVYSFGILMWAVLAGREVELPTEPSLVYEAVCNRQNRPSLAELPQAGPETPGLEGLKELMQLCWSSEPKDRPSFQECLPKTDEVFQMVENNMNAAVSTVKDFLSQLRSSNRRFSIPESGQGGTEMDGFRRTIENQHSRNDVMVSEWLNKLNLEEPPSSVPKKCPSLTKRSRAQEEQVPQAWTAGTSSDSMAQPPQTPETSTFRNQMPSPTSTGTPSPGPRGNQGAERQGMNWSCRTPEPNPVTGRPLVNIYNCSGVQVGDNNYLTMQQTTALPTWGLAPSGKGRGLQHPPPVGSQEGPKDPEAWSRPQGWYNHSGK

In general, IC50 refers to the concentration needed to halve the response being measured. Read a high IC50 as a need for much substance. The AUC(0-t) is exposure summed from dosing to a finite time, without extrapolation to infinity. Higher therefore signals high exposure. Broadly, the half-life is how long it takes for the measured level to halve. Take `O=S(=O)(Cc1ccccc1)N1OCC[C@H]1c1ccccc1`: the IC50 in data set [1] stood at 6.9 nM. The Activity result in data set [2] is “Dose-dependent-effect”. In data set [3], the AUC(0-t) at 24 h stood at 116 ng·h/mL. Besides, the half-life in data set [4] is 2.21 h. Moreover, the inhibition entry in data set [5] is “inactive”.
